System: human T helper cells
Test: IL-22 expression in human T helper cells activated with anti-CD3/anti-CD28 microparticles and recombinant Delta-like 4
Assay type: cell-based
Details: increasing concentrations of Delta-like 4 on microparticles; no antigen-presenting cells; restimulated after 5 days; FIG. 6
Experimental: Naive, i.e. antigen-inexperienced, human T helper cells are activated in the absence of antigen-presenting cells with microparticles loaded with stimulating anti-CD3 and anti-CD28 antibodies and increasing concentrations of recombinantly produced Delta-like 4. After 5 days the cells are restimulated and the expression of IL-22 is analyzed.

## Delta-like 4: recombinantly produced Notch ligand Delta-like 4, loaded on microparticles
  expression of IL-22: concentration-dependent expression of IL-22

Reference: US8709710B2, “Methods of modulating interleukin-22 and immune response by notch regulators” (Deutsches Rheuma-Forschungszentrum Berlin, priority 2009, dated 2014)
